From ChEMBL document CHEMBL1125916 (1991) come the findings set out here.

The experiment can be described thus: In vitro cytotoxicity in BALB/c3T3 mouse embryo fibroblasts. Conditions: BALB/c3T3, read-out: LC50.

SMILES strings stand for the structures.

Turning to `O=P1(N(CCCl)CCCl)NCCCO1` (stereo unspecified) [CYCLOPHOSPHAMIDE ANHYDROUS], the CC50 was determined as 37.6 µM.
